How the values were obtained:
GSPT1 = GSPT1 (Homo sapiens, UniProt P15170+Q96SW2); assay: Immunofluorescence assay for GSPT1 degradation in CAL-51 cells; assay type: cell-based; parameters: CAL-51 cells were purchased from DSMZ (cat. Number ACC302); endogenous in cells; host or cells: CAL-51 (DSMZ ACC302); details: compound treatment 6 hours, read-out: Code: activity for GSPT1 degradation (DC50)
Protocol: CAL-51 cells were purchased from DSMZ (cat. Number ACC302), sub-cultured in 90% Dulbecco's MEM (4.5 g/L glucose, Gibco 11965) +10% heat inactivated FBS (BioConcept, 2-01F136I) and incubated at 37° C., 5% CO2. For the assay, imaging microtiterplate Cell Carrier 96 Ultra (Perkin Elmer 6055302) were pre-coated with Fibronectin (Sigma F085, 300 at 0.2 μg/ml) in PBS (1000, Gibco 14190) for 45 min at room temperature, rinsed with PBS and CAL-51 cells (30K cells/well) were plated and let to adhere overnight. Cells were treated with compounds typically using a serial dilution ranging from 30 μM to 0.1 nM for 6 hours. Compounds were stored at 10 mM DMSO stocks. Vehicle (DMSO), positive (CC-885, 10 μM) and rescue controls (positive control plus 0.2 μM bortezomib) were also included at this stage. Cells were subsequently rinsed with PBS and fixed in 10% Formalin solution (50 μl, Sigma HT5011)) for 20 mins at room temperature. Following three consecutive PBS washes (100 μl), cells were permeabilized in 0.1% Triton X-100 in PBS (Sigma 93443, 50 μl) for 15 mins at room temperature. Following three further PBS washes, 50 μl blocking buffer (1% BSA, Sigma A4503, in PBS) was added for 45 min for signal-to-noise reduction. Primary antibody (human GSPT1, Sigma HPA052488) was diluted in blocking buffer (dil. 1/300, 35 μl/well) and incubated with the cells overnight at 4° C. After three PBS washes, Alexa-fluor 488 coupled secondary antibodies (Invitrogen, A32731, dil. 1/1000), Alexa-fluor 647-Phalloïdin (Invitrogen, A22287, dil. 1/200) and DAPI (Thermo, #62248, dil.1/1000) were diluted in blocking buffer and incubated with the samples for 2 hours at room temperature. After three final PBS washes, samples were conserved in 1000 PBS in the dark, until measurement. Image acquisition was performed on the Operetta High-Content Imager (Perkin-Elmer). Fluorescence intensity of Alexa-Fluor 488 (GSPT1), Alexa-Fluor 647 (Actin) and DAPI (Nucleus) were measured. For the determination of GSPT1 DC50 values, a custom algorithm implemented in the PerkinElmer image analysis software Harmony-Acapella® was developed. After user-defined setting of adjustment parameters, the analysis was run identically without human intervention for all image fields. DAPI staining of the nuclei was used to determine the location of cells using standard nuclei detection modules. Segmentation artifacts were removed by threshold-based filters for area, roundness and intensity. The outline of the cells was determined analogously from the sum of the normalized, smoothed DAPI and Actin channel, starting from each nucleus. The Alexa-Fluor 488 (GSPT1) signal intensity in each cell was finally measured, in order to obtain a Mean intensity per cell. GSPT1 degradation (DC50) was calculated after normalization to controls and data import in CDD vault Database, using non-linear regression. Activity for GSPT1 Degradation Table 3 assigns each compound a code indicating the ability for GSPT1 degradation: A, B or C. According to the code, A represents a DC50 value of ≤100 nM, B represents a DC50 value >100 nM and ≤300 nM and C represents a DC50 value of >300 nM.

[1] = test system: Human mammary epithelial cells (HMEC) engineered to express c-myc tagged with EGFP; assay: 3D spheroid assay, myc-HMEC (CellTiterGlo3D viability); assay type: cell-based; details: Homo sapiens, HMEC, 120 h, 3D spheroids, 5 days with compound, read-out: Code: EC50 value in the myc-HMEC assay
Protocol: (§1) 3D Spheroid Experiments—HMEC
(§2) Human mammary epithelial cells (HMEC) were engineered to express either c-myc tagged with EGFP or EGFP alone (non myc) (analogous but distinct from Kessler J D et al, Science. 2012 Jan. 20; 335(6066):348-53. doi: 10.1126/science.1212728; Hsu T Y et al, Nature. 2015 Sep. 17; 525(7569):384-8. doi: 10.1038/nature14985). The engineered cells were seeded at 1000 (myc) or 4000 (non myc) cells/well in a 384 ultra-low attachment plate in a total volume of 40 µL, HMEC cell culture media (DMEM/F12+10% HI-FBS+15 mM HEPES+0.5 ug/ml Hydrocortisone+10 ug/ml Insulin+20 ng/ml EGF). Plates were spun at 1200 rpm for 5 minutes at room temperature to ensure that cells have gathered in the middle of the well and incubated at 37° C. for 48 hrs before firing with compounds. On Day 2 (48 h post seeding) cells were imaged (brightfield and EGFP fluorescence) using the Celigo imaging cytometer prior to firing compounds. For primary screens, compounds were added at three concentrations (1.25, 10 and 30 uM) in a volume of 120 nL using the ECHO acoustic dispenser and spun at 2000 rpm for 2 minutes at room temperature before incubating at 37° C. for 5 days. […] On Day 7, prior to measuring cell viability using CellTiterGlo3D, cells were imaged (brightfield and EGFP fluorescence) on the Celigo imaging cytometer. The CellTiterGlo3D reagent is added at 30uL/well and incubated at room temperature for 30mins After 30mins of incubation, luminescence readings were recorded using the Perkin Elmer EnVision reader.

[2] = test system: Human mammary epithelial cells (HMEC) engineered to express EGFP alone (non myc); assay: 3D spheroid assay, non myc-HMEC (CellTiterGlo3D viability); assay type: cell-based; details: 120 h, 3D spheroids, 5 days with compound, read-out: Code: EC50 value in the non myc-HMEC assay
Protocol: as §1, §2

[3] = target: T1, Full length wild-type cereblon CRBN (Homo sapiens, UniProt Q96SW2); assay: Fluorescence polarization (FP) assay indicating cereblon binding; details: CRBN 80.0 nM, fluorescent probe 5 nM, FP measured after 12 hours; read-out: rFP IC50
T1 construct: Full length wild-type cereblon CRBN (80.0 nM, 10 μL) was incubated in assay buffer
T1 sequence (Q96SW2 whole entry): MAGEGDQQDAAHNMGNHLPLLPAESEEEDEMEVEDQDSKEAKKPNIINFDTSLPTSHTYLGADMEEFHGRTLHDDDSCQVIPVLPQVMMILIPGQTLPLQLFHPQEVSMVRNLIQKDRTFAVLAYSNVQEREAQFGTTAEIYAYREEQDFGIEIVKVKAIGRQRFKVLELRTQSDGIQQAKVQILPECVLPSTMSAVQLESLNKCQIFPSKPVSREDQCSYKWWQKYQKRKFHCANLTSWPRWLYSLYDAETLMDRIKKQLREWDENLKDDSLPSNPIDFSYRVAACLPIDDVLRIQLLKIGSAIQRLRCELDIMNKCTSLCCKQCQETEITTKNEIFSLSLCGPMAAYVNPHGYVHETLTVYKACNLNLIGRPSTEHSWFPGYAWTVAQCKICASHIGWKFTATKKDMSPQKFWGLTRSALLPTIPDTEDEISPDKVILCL
From the text: Protocol for Fluorescent Polarization Assay
Compound activity was monitored in a fluorescence polarization (FP) homogeneous assay using 1-[5-({2-[2-(2-{[2-(2,6-dioxopiperidin-3-yl)-1,3-dioxo-2,3-dihydro-1H-isoindol-4-yl]oxy}acetamido)ethoxy]ethyl}carbamoyl)pentyl]-3,3-dimethyl-2-[(1E,3E)-5-[(2E)-1,3,3-trimethyl-5-sulfo-2,3-dihydro-1H-indol-2-ylidene]penta-1,3-dien-1-yl]-3H-indol-1-ium-5-sulfonate as a fluorescent probe. Unless otherwise stated, all reagents were purchased from Sigma Aldrich. Enzymatic reactions were conducted in Perkin-Elmer Black 384 well ProxiPlate Plus (catalogue no. 6008269) in 10 μL total volume. Full length wild-type cereblon CRBN (80.0 nM, 10 μL) was incubated in assay buffer containing 20 mM HEPES (pH 8.0), […], 0.5 mM TCEP and 0.05% Tween 20 in the presence or absence of compound (300 nL). Inhibitors were stored as 10 mM DMSO stocks in an inert environment (low humidity, dark, low oxygen, room temperature) using the Storage Pod System. Compounds and DMSO were dispensed using the Echo E5XX (Labcyte Inc. USA) to give concentrations from 300 to 0.937 or 3000 to 9.3 nM in a 12 data point curve. […] Following incubation at room temperature for […], the assay was initiated by dispensing the probe to a final concentration of 5 nM (2.5 nL of a 20 μM stock) using the Echo E5XX. FP was measured after a period of 12 hours using a Pherastar plate reader (BMG Labtech, Germany) exciting at 590 nm and measuring the amount of parallel and perpendicular light at 675 nm. The FP signal was subsequently normalized to the no-compound control (i.e., DMSO). Analysis and IC50 values were derived using Dotmatics (Dotmatics UK) software.

Sequence of GSPT1 (P15170 whole entry): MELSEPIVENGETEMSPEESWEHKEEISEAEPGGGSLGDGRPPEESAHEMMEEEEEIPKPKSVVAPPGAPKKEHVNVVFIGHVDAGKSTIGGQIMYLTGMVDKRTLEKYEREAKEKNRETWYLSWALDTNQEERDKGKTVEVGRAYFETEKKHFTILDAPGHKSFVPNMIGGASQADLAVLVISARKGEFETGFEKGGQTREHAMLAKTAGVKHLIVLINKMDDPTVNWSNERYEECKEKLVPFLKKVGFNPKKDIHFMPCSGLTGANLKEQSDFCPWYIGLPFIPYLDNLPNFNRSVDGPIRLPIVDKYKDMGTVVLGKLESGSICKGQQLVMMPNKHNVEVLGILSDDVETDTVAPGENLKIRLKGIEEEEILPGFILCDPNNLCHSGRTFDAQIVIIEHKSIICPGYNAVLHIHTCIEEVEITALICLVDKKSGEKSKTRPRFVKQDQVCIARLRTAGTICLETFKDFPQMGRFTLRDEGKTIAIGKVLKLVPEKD
Sequence of GSPT1 (Q96SW2 whole entry): as the sequence (Q96SW2 whole entry) above
Sequence of GSPT1 (Q16531 2-1140 partner limits assumed): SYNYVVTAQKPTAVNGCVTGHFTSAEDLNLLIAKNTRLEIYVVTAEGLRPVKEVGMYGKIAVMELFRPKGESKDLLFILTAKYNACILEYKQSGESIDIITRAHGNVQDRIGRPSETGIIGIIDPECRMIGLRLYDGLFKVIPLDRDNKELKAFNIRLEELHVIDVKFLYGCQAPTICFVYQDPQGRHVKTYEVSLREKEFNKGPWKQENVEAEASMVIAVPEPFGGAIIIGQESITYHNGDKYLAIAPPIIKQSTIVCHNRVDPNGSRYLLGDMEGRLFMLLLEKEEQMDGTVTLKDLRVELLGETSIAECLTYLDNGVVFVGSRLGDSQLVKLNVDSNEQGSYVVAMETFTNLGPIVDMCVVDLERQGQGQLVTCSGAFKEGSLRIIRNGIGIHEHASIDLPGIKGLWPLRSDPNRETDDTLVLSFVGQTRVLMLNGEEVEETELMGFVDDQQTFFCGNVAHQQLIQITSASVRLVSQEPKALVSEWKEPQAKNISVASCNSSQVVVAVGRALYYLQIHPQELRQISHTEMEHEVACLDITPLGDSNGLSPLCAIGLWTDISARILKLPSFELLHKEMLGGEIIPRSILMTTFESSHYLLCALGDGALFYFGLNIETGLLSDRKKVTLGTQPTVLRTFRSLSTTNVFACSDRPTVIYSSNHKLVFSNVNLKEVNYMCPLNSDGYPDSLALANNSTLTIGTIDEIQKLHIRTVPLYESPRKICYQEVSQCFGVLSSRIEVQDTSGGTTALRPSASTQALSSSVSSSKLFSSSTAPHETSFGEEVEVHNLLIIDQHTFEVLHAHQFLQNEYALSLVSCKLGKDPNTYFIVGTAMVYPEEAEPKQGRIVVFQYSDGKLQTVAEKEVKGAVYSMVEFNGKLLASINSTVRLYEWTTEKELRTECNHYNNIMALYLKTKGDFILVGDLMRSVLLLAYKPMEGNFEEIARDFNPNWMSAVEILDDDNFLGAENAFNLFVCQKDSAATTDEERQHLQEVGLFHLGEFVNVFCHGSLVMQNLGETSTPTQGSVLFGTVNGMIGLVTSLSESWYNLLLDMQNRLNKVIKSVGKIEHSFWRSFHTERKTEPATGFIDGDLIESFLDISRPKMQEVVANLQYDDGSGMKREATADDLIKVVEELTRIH

SMILES | DC50 (GSPT1) [nM] | EC50 [1] [nM] | EC50 [2] [nM] | IC50 [3] [nM]
O=C1CCC(N2Cc3ccc(CNC(=O)Nc4ccccc4)cc3C2=O)C(=O)N1 (stereo not shown) [Compound 1] | > 300 | > 2000 | > 10000 | 1040
O=C1CCC(N2Cc3ccc(CNC(=O)Nc4ccc(Cl)cc4)cc3C2=O)C(=O)N1 (stereo not shown) [Compound 2] | > 300 | > 2000 | > 10000 | 254
O=C1CCC(N2Cc3ccc(CNC(=O)Nc4cccc(Cl)c4)cc3C2=O)C(=O)N1 (stereo not shown) [Compound 3] | > 300 | > 2000 | > 10000 | 400
O=C1CCC(N2Cc3ccc(CNC(=O)Nc4ccccc4Cl)cc3C2=O)C(=O)N1 (stereo not shown) [Compound 4] | > 300 | > 2000 | > 10000 | 483
COc1ccc(NC(=O)NCc2ccc3c(c2)C(=O)N(C2CCC(=O)NC2=O)C3)cc1 (stereo not shown) [Compound 5] | > 300 | > 2000 | > 10000 | 339
COc1cccc(NC(=O)NCc2ccc3c(c2)C(=O)N(C2CCC(=O)NC2=O)C3)c1 (stereo not shown) [Compound 6] | > 300 | > 2000 | > 10000 | 467
COc1ccccc1NC(=O)NCc1ccc2c(c1)C(=O)N(C1CCC(=O)NC1=O)C2 (stereo not shown) [Compound 7] | > 300 | > 2000 | > 10000 | 324
CC(C)(C)NC(=O)NCc1ccc2c(c1)C(=O)N(C1CCC(=O)NC1=O)C2 (stereo not shown) [Compound 10] | > 300 | > 2000 | > 10000 | 763
CC(C)(C)c1ccccc1NC(=O)NCc1ccc2c(c1)C(=O)N(C1CCC(=O)NC1=O)C2 (stereo not shown) [Compound 11] | > 300 | > 2000 | > 10000 | 1230
CC(C)NC(=O)NCc1ccc2c(c1)C(=O)N(C1CCC(=O)NC1=O)C2 (stereo not shown) [Compound 12] | > 300 | > 2000 | > 10000 | 960
CCCCCCNC(=O)NCc1ccc2c(c1)C(=O)N(C1CCC(=O)NC1=O)C2 (stereo not shown) [Compound 13] | > 300 | > 2000 | > 10000 | 944
CCCNC(=O)NCc1ccc2c(c1)C(=O)N(C1CCC(=O)NC1=O)C2 (stereo not shown) [Compound 14] | > 300 | > 2000 | > 10000 | 1420
CCNC(=O)NCc1ccc2c(c1)C(=O)N(C1CCC(=O)NC1=O)C2 (stereo not shown) [Compound 15] | > 300 | > 2000 | > 10000 | 902
CCOc1ccc(NC(=O)NCc2ccc3c(c2)C(=O)N(C2CCC(=O)NC2=O)C3)cc1 (stereo not shown) [Compound 16] | > 300 | > 2000 | > 10000 | 817
COc1ccc(C)cc1NC(=O)NCc1ccc2c(c1)C(=O)N(C1CCC(=O)NC1=O)C2 (stereo not shown) [Compound 17] | > 300 | > 2000 | > 10000 | 514
CCc1ccc(NC(=O)NCc2ccc3c(c2)C(=O)N(C2CCC(=O)NC2=O)C3)cc1 (stereo not shown) [Compound 18] | > 300 | > 2000 | > 10000 | 552
Cc1c(Cl)cccc1NC(=O)NCc1ccc2c(c1)C(=O)N(C1CCC(=O)NC1=O)C2 (stereo not shown) [Compound 19] | > 300 | > 2000 | > 10000 | 576
COc1cc(C)c(Cl)cc1NC(=O)NCc1ccc2c(c1)C(=O)N(C1CCC(=O)NC1=O)C2 (stereo not shown) [Compound 76] | ≤ 100 | – | > 10000 | 281
O=C1CCC(N2Cc3ccc(CNC(=O)Nc4ccc(OC(F)(F)F)cc4)cc3C2=O)C(=O)N1 (stereo not shown) [Compound 77] | ≤ 100 | – | > 10000 | 570
Cc1cc(Cl)c(NC(=O)NCc2ccc3c(c2)C(=O)N(C2CCC(=O)NC2=O)C3)cc1Cl (stereo not shown) [Compound 78] | ≤ 100 | – | > 10000 | 725
CN1CCC(Oc2cc(Cl)cc(NC(=O)NCc3ccc4c(c3)C(=O)N(C3CCC(=O)NC3=O)C4)c2)C1 (stereo not shown) [Compound 162] | > 300 | – | – | 699
CC(C)(C)c1ccc(NC(=O)NCc2ccc3c(c2)C(=O)N(C2CCC(=O)NC2=O)C3)cn1 (stereo not shown) [Compound 163] | ≤ 100 | – | – | 1470
O=C1CCC(N2Cc3ccc(CNC(=O)Nc4cc(OC(F)(F)F)ccn4)cc3C2=O)C(=O)N1 (stereo not shown) [Compound 164] | > 300 | – | – | 1600
O=C1CCC(N2Cc3ccc(CNC(=O)Nc4cc(F)cc(OC(F)(F)F)c4)cc3C2=O)C(=O)N1 (stereo not shown) [Compound 165] | > 300 | – | – | 1630

— patent US20220242846A1, “ISOINDOLINONE COMPOUNDS” (Monte Rosa Therapeutics AG, priority 2019, published 2022)
